These results are taken from patent US10005731B2, “Modulators of the retinoid-related orphan receptor gamma (ROR-gamma) for use in the treatment of autoimmune and inflammatory diseases” (Glaxo Group Limited, priority 2012, dated 2018).

Where a name gives a salt, the structure may show the parent alone. Read-outs that look alike come from different tables or passages of the source.

Data set [1] deals with T1, RORγ (Homo sapiens, UniProt P51449).
T1 construct: expressed in transfected cells
T1 sequence (P51449 1-497 isoform P51449-2): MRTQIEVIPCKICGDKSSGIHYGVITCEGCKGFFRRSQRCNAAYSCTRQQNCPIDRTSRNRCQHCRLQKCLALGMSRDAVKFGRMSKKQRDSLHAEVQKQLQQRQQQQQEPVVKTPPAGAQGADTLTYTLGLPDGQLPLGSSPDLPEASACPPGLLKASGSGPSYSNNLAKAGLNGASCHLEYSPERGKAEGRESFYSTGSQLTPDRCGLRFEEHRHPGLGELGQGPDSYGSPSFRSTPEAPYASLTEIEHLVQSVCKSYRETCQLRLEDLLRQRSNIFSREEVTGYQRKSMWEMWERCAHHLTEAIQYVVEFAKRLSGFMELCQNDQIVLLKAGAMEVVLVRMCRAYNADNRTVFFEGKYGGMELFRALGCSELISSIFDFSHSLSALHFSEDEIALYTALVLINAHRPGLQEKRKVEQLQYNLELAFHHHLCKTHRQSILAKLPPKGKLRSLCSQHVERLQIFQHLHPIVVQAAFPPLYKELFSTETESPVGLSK
Nature of the data set: Jurkat cell luciferase assay (human IL17 promoter reporter, RORγt overexpression). It counts as cell-based. The note with it: mean pIC50; detection limit of the assay 5. The source says: RORγ is known to bind to a CNS (conserved non-coding sequences) enhancer element in the IL17 promoter. In this assay, RORγ activity is indirectly assessed using a luciferase reporter construct which contains the human IL17 promoter having the RORγ-specific CNS enhancer element. Inhibition of RORγ activity by a compound will result in a decrease in luciferase activity of Jurkat cells transfected with the reporter construct.
. For the 1.1 Kb fragment, PCR was used to amplify human IL17 proximal promoter region from genomic DNA of 293T cells using primers as follows: forward primer, 5′-[…]-3′ (SEQ ID NO. 4) (Xhol site is underlined) and reverse primer, 5′-[…]-3′ SEQ ID NO. 5) (HindIII site is underlined). The 1.1 kb DNA bands were excised, purified, and inserted into pMD19-T Simple Vector (Takara). After DNA sequencing confirmation, the 1.1 kb DNA was digested with XhoI and HindIII and inserted into XhoI/HindIII sites of pGL4.31[luc2P/GAL4UAS/Hygro] (Promega) to generate the pIL17-lkb-luc reporter construct. For the 1.9 Kb fragment, PCR was used to amplify human IL17 promoter region from genomic DNA using primers as follows: forward primer, 5′-[…]-3′ (SEQ ID NO. 6) (KpnI site is underlined) and reverse primer, 5′-[…]-3′ (SEQ ID NO. 7)(XhoI site is underlined). The resulting 1.9 kb DNA bands were excised, gel purified, and cloned into a pMD19-T Simple Vector (Takara). […] The 1.9 kb DNA fragment was released by double digestion with KpnI and XhoI and inserted into pIL17-lkb-luc to generate the luciferase reporter plasmid “pIL17-3kb-CNS-luc.” To overexpress RORγt, the full-length cDNA of human RORγt identical to the published sequence NM13 001001523 was cloned into pcDNA3.1 at the KpnI-NotI cloning sites to generate the RORγt overexpression plasmid “CDNA3.1DhRORγ49-8”. […]
Compounds were dissolved in DMSO at three concentrations, 10 mM, 400 uM and 16 uM, and were dispensed into 384-wells assay plate at 40 nl, 12.5 nl, 5 nl respectively. The volume was adjusted with pure DMSO to a give a final uniform volume of 40 nl Jurkat cells described above were counted and centrifuged. […]

Data set [2] relates to Mouse CD4+ cells. Nature of the data set: Th17 cell differentiation assay (IL-17 ELISA). The format is cell-based. The method, then: Mouse CD4+cells were purified using the CD4+ T Cell Isolation II Kit according to manufacturer's instructions (Miltenyi Biotec). 96 well plates were pre-coated with anti-mCD3 antibody. Un-coated wells were used as controls. CD4+ Cells were resuspended in RPMI 1640 complete medium and were added to the 96-well plates. Cytokine cocktail and the compound were then added to the wells. Antibodies and cytokines (all from R&D Systems) used in the assay were selected from the following: anti-mCD3; anti-mCD28; anti-mIFNγ; anti-mIL4; mIL-6; mIL-23; mIL-1β; hTGF-β1. The culture was incubated at 37° C. for 3 days and supernatants were collected for ELISA. The IL-17 ELISAs were performed according to manufacturer's instructions (R&D Systems). The results were analyzed using Prism software with non-linear regression to determine pIC50.

The nature of data set [3]: In vitro percutaneous study (Franz diffusion cells, aqueous cream). The format is in vitro ADME, human. The source says:
The in vitro percutaneous study is aimed to predict the level of percutaneous penetration obtained for a compound in a topical formulation for psoriasis. This assay coupled with the intrinsic potency of the compound are used to predict the likelihood of success of a compound to engage the target. The higher the ratio of the percutaneous penetration to the intrinsic potency, the higher the ratio of local skin concentration to the intrinsic potency and therefore the higher the chance of a compound to engage the target in a topical formulation.
The compounds were manufactured in a modified aqueous cream at pH=6.
The study was conducted with dermatomed abdominal human skin sourced from three skin donors using 2 cm2 Franz diffusion cells. The receiving fluid consisted of Bovine serum albumin (4% w/v) in 0.1% w/v sodium azide in Phospate Buffer Saline and was heated at 37° C. in order to obtain 32° C. at the skin surface. The cream formulation was applied on the donor side at a 10 mg dose, i.e. 5 mg/cm^2. The samples taken at the following time points: t=0, 3, 6, 9 and 24 h. The receiver samples were then assayed using a method based upon protein precipitation with acetonitrile followed by LC/MS/MS analysis. The percutaneous flux (in ng/cm^2/hr) was determined using the individual API (in a multiple composition) that had permeated into the receiver compartment over 24 hrs per cm^2.

Where [4] appears, read: 72 h, mean pIC50, IL-17 ELISA, 3 days culture, detection limit of the assay 5, read-out: pIC50 in the Th17 cell differentiation assay (converted).

As for `Cc1c(CN2CCN(C(=O)C3CCCC3)[C@@H](C)C2)cc(F)cc1NC(=O)c1cccc(C#N)c1` [Example 66, (S)-3-cyano-N-(3-((4-(cyclopentanecarbonyl)-3-methylpiperazin-1-yl)methyl)-5-fluoro-2-methylphenyl)benzamide], the IC50 in data set [1] was about 5.01 nM; in data set [2] (setting [4]) it was about 0.794 nM; in data set [2] (table with percutaneous study, read-out: Th17 cell differentiation assay IC50) it was 0.4 ng/mL; in data set [2] (table with percutaneous study, read-out: Th17 cell differentiation assay pIC50 (converted)), 0.794 nM. In addition, the “Flux over 24 hrs” value in data set [3] (1.0% w/w in aqueous cream pH=6, 5 mg/cm^2, human skin from three donors) is recorded as 3.43 ng/cm^2/hr. The “ratio of percutaneous penetration (Flux) to intrinsic potency (Th17 cell differentiation assay IC50)” value in data set [3] (ranking among the three compounds tested) is given as “highest ratio”.
As to `Cc1c(CN2CCN(C(=O)C3CCCC3)[C@@H](C)C2)cc(Cl)cc1NC(=O)c1cccc(C#N)c1` [Example 193, (S)-N-(5-chloro-3-((4-(cyclopentanecarbonyl)-3-methylpiperazin-1-yl)methyl)-2-methylphenyl)-3-cyanobenzamide, trifluoroacetic acid salt], the IC50 in data set [1] was about 2.51 nM; in data set [2] (setting [4]), about 5.01 nM.
